Assay results: US7897175B2, “Dosage forms comprising a CETP inhibitors and an HMG-CoA reductase inhibitor” (Bend Research, Inc., priority 2002, dated 2011)

Experiments:
[1] = Aqueous solubility of torcetrapib; format: physicochemical; settings: aqueous solution (not specified further), water, about 22° C.
Description: The CETP inhibitor may be any compound capable of inhibiting the cholesteryl ester transfer protein. Solid amorphous dispersions are particularly useful for CETP inhibitors that have sufficiently low aqueous solubility, low bioavailability or slow rate of absorption such that it is desirable to increase their concentration in an aqueous environment of use. […] Many CETP inhibitors have even lower solubilities (some even less than 0.1 μg/mL), and require dramatic concentration enhancement to be sufficiently bioavailable upon oral dosing for effective plasma concentrations to be reached at practical doses.
CETP inhibitors, in particular torcetrapib, and methods for preparing such compounds are disclosed in detail in U.S. Pat. Nos. 6,197,786 and 6,313,142, in PCT Application Nos. WO 01/40190A1, WO 02/088085A2, and WO 02/088069A2, the disclosures of which are herein incorporated by reference. Torcetrapib has an unusually low solubility in aqueous environments such as the lumenal fluid of the human GI tract. The aqueous solubility of torceptrapib is less than about 0.04 μg/ml. Torcetrapib must be presented to the GI tract in a solubility-enhanced form in order to achieve a sufficient drug concentration in the GI tract in order to achieve sufficient absorption into the blood to elicit the desired therapeutic effect.

[2] = In vitro dissolution test using a microcentrifuge method (PBS); format: physicochemical; settings: for AUC90 (area under the aqueous concentration versus time curve after 90 minutes) / C1200 (concentration at 1200 minutes) / MDC90 (maximum concentration of torcetrapib in solution during the first 90 minutes): receptor solution PBS; for Torcetrapib Concentration / AUC: PBS pH 6.5, 37° C.; for Torcetrapib Concentration: 1000 μg/mL if all drug dissolved
Description: The spray-dried solid amorphous dispersion was evaluated in an in vitro dissolution test using a microcentrifuge method. In this test, 7.2 mg of the spray-dried solid amorphous dispersion was placed into a microcentrifuge tube. The tube was placed in a 37° C. sonicating bath, and 1.8 mL phosphate buffered saline (PBS) at pH 6.5 and 290 mOsm/kg was added, resulting in a torcetrapib concentration of 1000 μg/mL if all of the drug had dissolved. The sample was quickly mixed using a vortex mixer for about 60 seconds. The sample was centrifuged at 13,000 G at 37° C. for 1 minute. The resulting supernatant solution was then sampled and diluted 1:6 (by volume) with methanol and then analyzed by high-performance liquid chromatography (HPLC). The contents of the tube was mixed on the vortex mixer and allowed to stand undisturbed at 37° C. until the next sample was taken. Samples were collected at 4, 10, 20, 40, 90, and 1200 minutes. The concentrations of drug obtained in these samples are shown in Table 1, which represent the average of duplicate tests.
As a control, an in vitro dissolution test was performed using the procedures described above except that 1.8 mg of crystalline drug was used.
The spray-dried solid amorphous dispersion was evaluated in an in vitro dissolution test using a microcentrifuge method. In this test, 4.5 mg of the spray -dried solid amorphous dispersion was placed into a microcentrifuge tube. The tube was placed in a 37° C. sonicating bath, and 1.8 mL phosphate buffered saline (PBS) at ph 6.5 and 290 mOsm/kg was added, resulting in a torcetrapib concentration of 1000 μg/mL if all of the drug dissolved. The sample was quickly mixed using a vortex mixer for about 60 seconds. The sample was centrifuged at 13,000 G at 37° C. for 1 minute. The resilting superatant solution was then sampled and diluted 1:6 (by volume) with methanol and then analyzed by high-performance liquid chromatography (HPLC). The contents of the tube was mixed on the vortex mixer and allowed to stand undisturbed at 37° C. until the next sample was taken. Samples were collected at 4, 10, 20, 40, 90, and 1200 minutes. The concentrations of drug obtained in these samples are shown in Table 9, which represent the average of duplicate tests. The results using crystalline drug are included in Table 9 for […]

[3] = Example 1 test (dispersion 25 wt % torcetrapib)
[4] = Example 12 test (dispersion 40 wt % torcetrapib, HPMCAS-HG)
[5] = time 0 min, Example 1 test (dispersion 25 wt % torcetrapib, HPMCAS-MG)
[6] = time 0 min, Example 12 test (dispersion 40 wt % torcetrapib, HPMCAS-HG)
[7] = time 4 min, Example 1 test (dispersion 25 wt % torcetrapib, HPMCAS-MG)
[8] = time 4 min, Example 12 test (dispersion 40 wt % torcetrapib, HPMCAS-HG)
[9] = time 10 min, Example 1 test (dispersion 25 wt % torcetrapib, HPMCAS-MG)
[10] = time 10 min, Example 12 test (dispersion 40 wt % torcetrapib, HPMCAS-HG)
[11] = time 20 min, Example 1 test (dispersion 25 wt % torcetrapib, HPMCAS-MG)
[12] = time 20 min, Example 12 test (dispersion 40 wt % torcetrapib, HPMCAS-HG)
[13] = time 40 min, Example 1 test (dispersion 25 wt % torcetrapib, HPMCAS-MG)
[14] = time 40 min, Example 12 test (dispersion 40 wt % torcetrapib, HPMCAS-HG)
[15] = time 90 min, Example 1 test (dispersion 25 wt % torcetrapib, HPMCAS-MG)
[16] = time 90 min, Example 12 test (dispersion 40 wt % torcetrapib, HPMCAS-HG)
[17] = time 1200 min, Example 1 test (dispersion 25 wt % torcetrapib, HPMCAS-MG)
[18] = time 1200 min, Example 12 test (dispersion 40 wt % torcetrapib, HPMCAS-HG)

solubility [1]: < 0.04 µg/mL
AUC90 (area under the aqueous concentration versus time curve after 90 minutes) [2, 3]: <88 min-μg/mL
C1200 (concentration at 1200 minutes) [2, 3]: <1 µg/mL
MDC90 (maximum concentration of torcetrapib in solution during the first 90 minutes) [2, 3]: <1 µg/mL
AUC90 (area under the aqueous concentration versus time curve after 90 minutes) [2, 4]: <88 min-μg/mL
C1200 (concentration at 1200 minutes) [2, 4]: <1 µg/mL
MDC90 (maximum concentration of torcetrapib in solution during the first 90 minutes) [2, 4]: <1 µg/mL
Torcetrapib Concentration [2, 5]: 0 µg/mL
Torcetrapib Concentration [2, 6]: 0 µg/mL
AUC [2, 5]: 0 min-μg/mL
AUC [2, 6]: 0 min-μg/mL
Torcetrapib Concentration [2, 7]: <1 µg/mL
Torcetrapib Concentration [2, 8]: <1 µg/mL
AUC [2, 7]: <2 min-μg/mL
AUC [2, 8]: <2 min-μg/mL
Torcetrapib Concentration [2, 9]: <1 µg/mL
Torcetrapib Concentration [2, 10]: <1 µg/mL
AUC [2, 9]: <8 min-μg/mL
AUC [2, 10]: <8 min-μg/mL
Torcetrapib Concentration [2, 11]: <1 µg/mL
Torcetrapib Concentration [2, 12]: <1 µg/mL
AUC [2, 11]: <18 min-μg/mL
AUC [2, 12]: <18 min-μg/mL
Torcetrapib Concentration [2, 13]: <1 µg/mL
Torcetrapib Concentration [2, 14]: <1 µg/mL
AUC [2, 13]: <38 min-μg/mL
AUC [2, 14]: <38 min-μg/mL
Torcetrapib Concentration [2, 15]: <1 µg/mL
Torcetrapib Concentration [2, 16]: <1 µg/mL
AUC [2, 15]: <88 min-μg/mL
AUC [2, 16]: <88 min-μg/mL
Torcetrapib Concentration [2, 17]: <1 µg/mL
Torcetrapib Concentration [2, 18]: <1 µg/mL
AUC [2, 17]: <1,200 min-μg/mL
AUC [2, 18]: <1,200 min-μg/mL
SMILES: CCOC(=O)N1c2ccc(C(F)(F)F)cc2[C@@H](N(Cc2cc(C(F)(F)F)cc(C(F)(F)F)c2)C(=O)OC)C[C@H]1CC [Crystalline Drug, [2R,4S]-4-[(3,5-bis-trifluoromethyl-benzyl)-methoxycarbonyl-amino]-2-ethyl-6-trifluoromethyl-3,4-dihydro-2H-quinoline-1-carboxylic acid ethyl ester]
